The source of these data is US4828849A, “Surfactant inhibition of dental plaque” (Warner-Lambert Company, priority 1988, dated 1989).

Assay [1] relates to Streptococcus sanguis G9B, S. mutans Ingbritt and Actinomyces viscosus T14 V. Nature of the assay: Adherence assay: inhibition of initial adherence of bacteria to saliva-coated hydroxyapatite beads. The class given is cell-based. The conditions noted are these: 50% inhibition of bacterial adherence to saliva-coated hydroxyapatite (HA) beads, determined graphically; surfactant dissolved in water; 37° C.; read-out: 50% Inhibition Concentration. From the text: S. sanguis G9B adheres well to saliva-coated hydroxyapatite. This attachment, in vivo, occurs within minutes. As plaque matures, the percentage of S. sanguis decreases, but its actual numbers remain high. In vivo and in vitro studies have shown S. sanguis to interact with other oral bacteria including S. mutans and Actinomyces viscosus. S. mutans has also been implicated as a cause of dental caries. Stock cultures were kept both lyophillized and frozen in Brain Heart Infusion Broth (BHI, Difco Laboratories) at -70° C.; the latter being used to inoculate starter cultures. After overnight incubation at 37° C, a 0.5% inoculum was used to inoculate 100 ml of BHI which was subsequently incubated 20 hours at 37° C. The cells were radioactivately labeled by adding tritiated thymidine (methyl-3H) to a final specific activity of 2 μCi/ml. After incubation, the cells were harvested by centrifugation (16,320× g, 15 minutes, 4° C.), washed three times with buffered KCl (2 mM potassium phosphate buffer, 1 mM CaCl2, and 5 mM KCl, pH 6.0) (Ref. 8), and resuspended to a turbidity of 300 Klett units (Klett-Summerson colorimeter; blue, #47 filter). This bacterial stock cell suspension was then diluted with buffered KCl to produce a series of cell suspensions ranging from 1.6 to 300 Klett units. Duplicate 50 ul aliquots of each cell suspension were counted in Aquasol-2 to determine their specific activities.
A. viscosus T14 V was grown for 48 hours at 37° C. under anaerobic conditions in tryptic soy broth (TSB) containing glucose.
Whole, paraffin-stimulated saliva was collected into ice-chilled tubes and clarified by centrifugation ([…], 15 minutes, 4° C.). The supernatant fluids were removed and aliquots were stored frozen at -20° C. until used. A pool of saliva from several individuals was used routinely; and was collected after a 10 hour fast with no food or oral hygiene on the morning of collection.
Spheroidal hydroxyapatite beads (manufactured by BDH Chemicals, Poole, England and obtained from Gallard-Schlessinger Co., Carle Place, NY) were distributed into a 12×75 mm polystyrene test tube (Walter Sarstedt, Inc., Princeton, N.J.) and mixed with either 1 ml of saliva or buffered KCl for 1.5 hours at ambient temperature with rotation (20 rpm). Each tube contained 40±2 mg of HA beads, distributed using a calibrated stainless steel ladle.
The cells were radioactively labelled by addition of 1.5 μCi/ml methyl-^3 H thymidine to the cell suspension media. The hydroxyapatite (HA) beads were coated with either a surfactant or a control or saliva and rotated for 30 minutes at ambient temperature. The excess agent or saliva was removed by washing with buffer. Radioactively-labelled cells suspended in either buffer or varying concentrations of the surfactant were added to the beads. The beads and cells were incubated at 37° C., 10 minutes for the streptococcal strains and 15 minutes for the actinomycete, after which the beads were washed to remove the unbound cells and the radioactivity bound to them was determined by scintillation counting. S. mutans Ingbritt was also assayed for sucrose-mediated adherence by addition of 1% sucrose to the cells and surfactant mixture. The concentration to effect 50% inhibition of bacterial adherence to the HA beads was determined graphically.
Several surfactant agents according to the invention dissolved in water were employed in the assay.

A further assay addresses glucosyl transferase. In words: Assay for the inhibition of glucosyl transferase activity (14C-sucrose incorporation into glucan). Type of assay: biochemical. The note with it: 50% inhibition of glucosyl transferase activity; 0.05M sodium acetate buffer, pH 5.5, 37° C.; read-out: 50% Inhibition Concentration. As for the experimental part: An assay for the inhibition of glucosyl transferase activity was developed wherein the enzyme was incubated for 10 minutes with varying concentrations of the surfactant in 0.05M sodium acetate buffer, pH 5.5 at 37° C., with agitation. The reaction was then started by adding the remainder of the assay mixture (to a final volume of 450 mcl) consisting of: 2.5 μCi uniformly-labelled 14C -sucrose, 1% unlabelled sucrose, sodium fluoride and Dextran T10 in acetate buffer. Samples were removed at timed intervals, spotted to filters and the filters were treated with methanol. Radioactivity incorporated into glucan was plotted versus time as compared to a control preparation. By this procedure the concentration of test reagent necessary to achieve 50% inhibition of glucosyl transferase activity was determined.

Structures can show the parent of a compound that is named as a salt.

In the case of “Cocamidopropylhydroxysultaine [Surfactant 4]”, in assay [1], the IC50 came out at 15000 µM.

With `CCCCCCCCCCCCCCCC(=O)N(C)CCS(=O)(=O)O` [Surfactant 1, N--methyl-N--palmitoyltaurine, sodium salt], the IC50 in assay [1] worked out at 250 µM; on glucosyl transferase, 1000 µM.

As to “Cocamidopropylhydroxysultaine, potassium salt [Surfactant 5]”, in assay [1], the IC50 was determined as 25000 µM.

As to “N--methyl-N--cocoyltaurine sodium salt [Surfactant 3]”, the IC50 in assay [1] turned out to be 300 µM; on glucosyl transferase, 1000 µM.

For the molecule `CCCCCCCC/C=C\CCCCCCCC(=O)N(C)CCS(=O)(=O)O` [Surfactant 2, N--methyl-N--oleolytaurine sodium salt], the IC50 worked out at 350 µM in assay [1] and 1000 µM at glucosyl transferase.

As to “Cocoylisethionate, sodium salt [Surfactant 6]”, the IC50 in assay [1] is 100 µM.
